Laboratory results as given in patent publication US10023570B2 (Array BioPharma, Inc., priority 2015, dated 2018).
Where a name gives a salt, the structure may show the parent alone.

target: human KDR protein in HEK-293 cells (Homo sapiens (Human), UniProt P35968); assay: KDR Cell Assay (phospho-KDR in HEK-293 cells expressing inducible KDR); type: cell-based; conditions: pKDR Cell HEK 10% FBS IC50
Method: The cellular potency of a compound inhibiting KDR kinase was determined in HEK-293 cells expressing an inducible human KDR protein. […] The cells were incubated for 1 hour with test compound in DMEM at a final DMSO concentration of 0.25%. […] The media was aspirated and 35 μL of a 1× lysis buffer was added. […] The lysate was stored at −80° C. until ready for assay. Phospho-KDR was measured using a phospho-KDR kit (Catalog #K151BOC) purchased from Meso Scale Diagnostics (Rockville, Md.) according to the manufacturer's instructions. All values are expressed as percent of percent of control (POC). The POC values were fitted to a 4 parameter logistic curve fit and the IC50 value is point where the curve crosses 50 POC.

Chain of human KDR protein in HEK-293 cells (P35968 20-1356): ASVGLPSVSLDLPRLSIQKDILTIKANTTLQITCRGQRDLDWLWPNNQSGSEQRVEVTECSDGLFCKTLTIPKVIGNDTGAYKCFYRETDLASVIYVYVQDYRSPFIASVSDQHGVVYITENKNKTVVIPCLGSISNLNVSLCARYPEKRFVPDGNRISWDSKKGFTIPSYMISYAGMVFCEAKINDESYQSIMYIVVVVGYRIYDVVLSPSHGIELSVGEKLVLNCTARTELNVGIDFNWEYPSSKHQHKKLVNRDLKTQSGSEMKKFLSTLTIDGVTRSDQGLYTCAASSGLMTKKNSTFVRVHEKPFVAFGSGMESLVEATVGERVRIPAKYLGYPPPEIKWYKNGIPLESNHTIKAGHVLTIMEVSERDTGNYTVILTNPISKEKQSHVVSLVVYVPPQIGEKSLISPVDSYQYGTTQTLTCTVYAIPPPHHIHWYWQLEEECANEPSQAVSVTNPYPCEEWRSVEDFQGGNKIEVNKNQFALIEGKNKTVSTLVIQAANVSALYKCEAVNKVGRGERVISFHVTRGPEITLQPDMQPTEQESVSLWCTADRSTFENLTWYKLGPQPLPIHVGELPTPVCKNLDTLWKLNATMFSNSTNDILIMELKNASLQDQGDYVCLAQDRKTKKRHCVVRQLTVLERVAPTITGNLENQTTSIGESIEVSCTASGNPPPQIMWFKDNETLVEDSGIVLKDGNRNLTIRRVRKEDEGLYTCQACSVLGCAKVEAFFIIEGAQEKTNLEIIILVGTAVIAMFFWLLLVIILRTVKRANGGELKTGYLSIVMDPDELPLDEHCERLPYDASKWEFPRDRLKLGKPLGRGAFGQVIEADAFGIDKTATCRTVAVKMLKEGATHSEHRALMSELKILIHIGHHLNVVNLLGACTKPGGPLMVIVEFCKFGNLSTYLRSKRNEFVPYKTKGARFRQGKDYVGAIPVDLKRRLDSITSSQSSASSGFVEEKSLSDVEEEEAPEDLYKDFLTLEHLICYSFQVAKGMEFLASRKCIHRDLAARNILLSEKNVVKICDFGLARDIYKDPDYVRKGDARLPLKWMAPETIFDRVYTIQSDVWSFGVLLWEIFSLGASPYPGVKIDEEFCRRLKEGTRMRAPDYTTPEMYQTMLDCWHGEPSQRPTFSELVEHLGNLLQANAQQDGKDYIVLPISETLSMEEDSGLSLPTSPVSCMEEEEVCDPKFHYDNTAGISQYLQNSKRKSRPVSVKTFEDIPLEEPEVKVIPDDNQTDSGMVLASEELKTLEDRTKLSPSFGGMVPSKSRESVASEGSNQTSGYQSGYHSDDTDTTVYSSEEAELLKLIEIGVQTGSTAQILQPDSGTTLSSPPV

Structure (SMILES) | IC50
CC[C@H](O)CN1CCN(c2ccc(-c3cc(-c4cnn(C)c4)cn4ncc(C#N)c34)cn2)CC1 [Example 150, (S)-4-(6-(4-(2-hydroxybutyl)piperazin-1-yl)pyridin-3-yl)-6-(1-methyl-1H-pyrazol-4-yl)pyrazolo[1,5-a]pyridine-3-carbonitrile] | 728 nM

same assay, conditions: pKDR Cell HEK 10% FBS IC50, HEK-293 cells expressing inducible KDR, VEGF stimulated

Structure (SMILES) | IC50
Cn1cc(-c2cc(-c3ccc(N4CCC5(CCCOC5)C4)nc3)c3c(C#N)cnn3c2)cn1 (stereo not drawn) [Example 529, 4-(6-(7-oxa-2-azaspiro[4.5]decan-2-yl)pyridin-3-yl)-6-(1-methyl-1H-pyrazol-4-yl)pyrazolo[1,5-a]pyridine-3-carbonitrile] | ≥ 5000 nM
Cc1cncc(CN2CCN(c3ccc(-c4cc(-c5cnn(C)c5)cn5ncc(C#N)c45)cn3)CC2)n1 [Example 431, 6-(1-methyl-1H-pyrazol-4-yl)-4-(6-(4-((6-methylpyrazin-2-yl)methyl)piperazin-l-yl)pyridin-3-yl)pyrazolo[1,5-a]pyridine-3-carbonitrile] | 1500 nM
Cn1cc(-c2cc(-c3ccc(N4CCN(CC5CCOCC5)CC4)nc3)c3c(C#N)cnn3c2)cn1 [Example 466, 6-(1-methyl-1H-pyrazol-4-yl)-4-(6-(4-((tetrahydro-2H-pyran-4-yl)methyl)piperazin-l-yl)pyridin-3-yl)pyrazolo[1,5-a]pyridine-3-carbonitrile] | 2160 nM
Cn1cc(-c2cc(-c3ccc(N4CCC5(CC4)CC(N)C5)nc3)c3c(C#N)cnn3c2)cn1 [Example 544, 4-(6-(2-amino-7-azaspiro[3.5]nonan-7-yl)pyridin-3-yl)-6-(1-methyl-1H-pyrazol-4-yl)pyrazolo[1,5-a]pyridine-3-carbonitrile dihydrochloride] | 234 nM
Cn1cc(-c2cc(-c3ccc(N4CCC(Oc5ccc(Cl)cc5)CC4)nc3)c3c(C#N)cnn3c2)cn1 [Example 509, 4-(6-(4-(4-chlorophenoxy)piperidin-1-yl)pyridin-3-yl)-6-(1-methyl-1H-pyrazol-4-yl)pyrazolo[1,5-a]pyridine-3-carbonitrile] | 9.2 nM
COc1ccc(N(C)C(=O)N2CCN(c3ccc(-c4cc(-c5cnn(C)c5)cn5ncc(C#N)c45)cn3)CC2)cc1 [Example 383, 4-(5-(3-cyano-6-(1-methyl-1H-pyrazol-4-yl)pyrazolo[1,5-a]pyridine-4-yl)pyridin-2-yl)-N-(4-methoxyphenyl)-N-methylpiperazine-1-carboxamide] | 639 nM
Cn1cc(-c2cc(-c3ccc(N4CCC5(CCCNC5)C4)nc3)c3c(C#N)cnn3c2)cn1 (stereo not drawn) [Example 546, 4-(6-(2,7-diazaspiro[4.5]decan-2-yl)pyridin-3-yl)-6-(1-methyl-1H-pyrazol-4-yl)pyrazolo[1,5-a]pyridine-3-carbonitrile dihydrochloride] | 811 nM
COc1ccccc1N(C)C(=O)N1CCN(c2ccc(-c3cc(-c4cnn(C)c4)cn4ncc(C#N)c34)cn2)CC1 [Example 382, 4-(5-(3-cyano-6-(1-methyl-1H-pyrazol-4-yl)pyrazolo[1,5-a]pyridin-4-yl)pyridine-2-yl)-N-(2-methoxyphenyl)-N-methylpiperazine-1-carboxamide] | 1710 nM
Cn1cc(-c2cc(-c3ccc(N4CCC(c5ccc(Cl)cc5)CC4)nc3)c3c(C#N)cnn3c2)cn1 [Example 534, 4-(6-(4-(4-chlorophenyl)piperidin-1-yl)pyridin-3-yl)-6-(1-methyl-1H-pyrazol-4-yl)pyrazolo[1,5-a]pyridine-3-carbonitrile 2,2,2-trifluoroacetate] | 12.5 nM
Cc1cc(C)nc(CN2CCN(c3ccc(-c4cc(-c5cnn(C)c5)cn5ncc(C#N)c45)cn3)CC2)n1 [Example 401, 4-(6-(4-((4,6-dimethylpyrimidin-2-yl)methyl)piperazin-1-yl)pyridin-3-yl)-6-(1-methyl-1H-pyrazol-4-yl)pyrazolo[1,5-a]pyridine-3-carbonitrile] | 692 nM
CCCCN(C(=O)N1CCN(c2ccc(-c3cc(-c4cnn(C)c4)cn4ncc(C#N)c34)cn2)CC1)c1ccccc1 [Example 377, N-butyl-4-(5-(3-cyano-6-(1-methyl-1H-pyrazol-4-yl)pyrazolo[1,5-a]pyridin-4-yl)pyridine-2-yl)-N-phenylpiperazine-1-carboxamide] | 2030 nM
Cn1cc(-c2cc(-c3ccc(N4CCC5(CCCN5)CC4)nc3)c3c(C#N)cnn3c2)cn1 [Example 541, 4-(6-(1,8-diazaspiro[4.5]decan-8-yl)pyridin-3-yl)-6-(1-methyl-1H-pyrazol-4-yl)pyrazolo[1,5-a]pyridine-3-carbonitrile dihydrochloride] | 534 nM

same assay, conditions: pKDR Cell HEK 10% FBS IC50, HEK-293 cells expressing inducible KDR, VEGF stimulated, 10% FBS

Structure (SMILES) | IC50
Cn1cc(-c2cc(-c3ccc(N4CCOCC4)nc3)c3c(C#N)cnn3c2)cn1 [Example 224, 6-(1-methyl-1H-pyrazol-4-yl)-4-(6-morpholinopyridin-3-yl)pyrazolo[1,5-a]pyridine-3-carbonitrile] | 555 nM
Cn1cc(-c2cc(-c3ccc(N4CCN(C(=O)C(O)c5ccccc5F)CC4)nc3)c3c(C#N)cnn3c2)cn1 (stereo not drawn) [Example 10, 4-(6-(4-(2-(2-fluorophenyl)-2-hydroxyacetyl)piperazin-1-yl)pyridin-3-yl)-6-(1-methyl-1H-pyrazol-4-yl)pyrazolo[1,5-a]pyridine-3-carbonitrile] | 47.4 nM
Cc1ccc(CC(=O)N2CCN(c3ccc(-c4cc(-c5cnn(C)c5)cn5ncc(C#N)c45)cn3)CC2)cn1 [Example 19, 6-(1-methyl-1H-pyrazol-4-yl)-4-(6-(4-(2-(6-methylpyridin-3-yl)acetyl)piperazin-1-yl)pyridin-3-yl)pyrazolo[1,5-a]pyridine-3-carbonitrile] | 546 nM
Cn1cc(-c2cc(-c3ccc(N4CCC5(CC4)CN(C(=O)OC(C)(C)C)C5)nc3)c3c(C#N)cnn3c2)cn1 [Example 214, tert-butyl 7-(5-(3-cyano-6-(1-methyl-1H-pyrazol-4-yl)pyrazolo[1,5-a]pyridin-4-yl)pyridin-2-yl)-2,7-diazaspiro[3.5]nonane-2-carboxylate] | 597 nM
Cn1cc(-c2cc(-c3ccc(N4CCN(C[C@H](O)c5cccc(Cl)c5)CC4)nc3)c3c(C#N)cnn3c2)cn1 [Example 153, (R)-4-(6-(4-(2-(3-chlorophenyl)-2-hydroxyethyl)piperazin-1-yl)pyridin-3-yl)-6-(1-methyl-1H-pyrazol-4-yl)pyrazolo[1,5-a]pyridine-3-carbonitrile] | 164 nM
Cn1cc(-c2cc(-c3ccc(N4CCN(C(=O)N5C6CCC5CC6)CC4)nc3)c3c(C#N)cnn3c2)cn1 [Example 95, 4-(6-(4-(7-azabicyclo[2.2.1]heptane-7-carbonyl)piperazin-1-yl)pyridin-3-yl)-6-(1-methyl-1H-pyrazol-4-yl)pyrazolo[1,5-a]pyridine-3-carbonitrile] | 1310 nM
Cn1cc(-c2cc(-c3ccc(N4CCN(C(=O)[C@H]5CC[C@@H](O)C5)CC4)nc3)c3c(C#N)cnn3c2)cn1 [Example 12, 4-(6-(4-((1S,3R)-3-hydroxycyclopentane-1-carbonyl)piperazin-1-yl)pyridin-3-yl)-6-(1-methyl-1H-pyrazol-4-yl)pyrazolo[1,5-a]pyridine-3-carbonitrile] | 1190 nM
Cn1cc(-c2cc(-c3ccc(N4CCCC5(CCN(C(=O)OC(C)(C)C)C5)C4)nc3)c3c(C#N)cnn3c2)cn1 (stereo not drawn) [Example 208, tert-butyl 7-(5-(3-cyano-6-(1-methyl-1H-pyrazol-4-yl)pyrazolo[1,5-a]pyridin-4-yl)pyridin-2-yl)-2,7-diazaspiro[4.5]decane-2-carboxylate] | 4680 nM
Cn1cc(-c2cc(-c3ccc(N4CCN(C(=O)C5(c6ccccn6)CC5)CC4)nc3)c3c(C#N)cnn3c2)cn1 [Example 359, 6-(1-methyl-1H-pyrazol-4-yl)-4-(6-(4-(1-(pyridine-2-yl)cyclopropane-1-carbonyl)piperazin-1-yl)pyridin-3-yl)pyrazolo[1,5-a]pyridine-3-carbonitrile bis(2,2,2-trifluoroacetate)] | 910 nM
CN(C)C(C(=O)N1CCN(c2ccc(-c3cc(-c4cnn(C)c4)cn4ncc(C#N)c34)cn2)CC1)c1ccc(F)cc1 (stereo not drawn) [Example 351, 4-(6-(4-(2-(dimethylamino)-2-(4-fluorophenyl)acetyl)piperazin-1-yl)pyridin-3-yl)-6-(1-methyl-1H-pyrazol-4-yl)pyrazolo[1,5-a]pyridine-3-carbonitrile] | 1760 nM
Cn1cc(-c2cc(-c3ccc(N4CCN(C[C@H](O)c5ccccc5)CC4)nc3)c3c(C#N)cnn3c2)cn1 [Example 161, (R)-4-(6-(4-(2-hydroxy-2-phenylethyl)piperazin-1-yl)pyridin-3-yl)-6-(1-methyl-1H-pyrazol-4-yl)pyrazolo[1,5-a]pyridine-3-carbonitrile] | 48.5 nM
Cn1cc(-c2cc(-c3ccc(N4[C@@H]5CC[C@H]4C[C@H](NC(=O)OC(C)(C)C)C5)nc3)c3c(C#N)cnn3c2)cn1 [Example 192, tert-butyl ((1R,3s,5S)-8-(5-(3-cyano-6-(1-methyl-1H-pyrazol-4-yl)pyrazolo[1,5-a]pyridin-4-yl)pyridin-2-yl)-8-azabicyclo[3.2.1]octan-3-yl)carbamate] | 932 nM
CN1CCN(C(=O)N2CCN(c3ccc(-c4cc(-c5cnn(C)c5)cn5ncc(C#N)c45)cn3)CC2)CC1 [Example 120, 6-(1-methyl-1H-pyrazol-4-yl)-4-(6-(4-(4-methylpiperazine-1-carbonyl)piperazin-1-yl)pyridin-3-yl)pyrazolo[1,5-a]pyridine-3-carbonitrile] | 2240 nM
Cn1cc(-c2cc(-c3ccc(N4CCN(C(=O)CO)CC4)cc3)c3c(C#N)cnn3c2)cn1 [Example 293, 4-(4-(4-(2-hydroxyacetyl)piperazin-1-yl)phenyl)-6-(1-methyl-1H-pyrazol-4-yl)pyrazolo[1,5-a]pyridine-3-carbonitrile hydrochloride] | 532 nM
